Reference: US5468774A, “Tetronic, thiotetronic and tetramic acid derivatives as phospholipase A.sub ” (American Home Products Corporation, priority 1995, dated 1995)
pIC50: −log10 of the molar value.

Key:
[1] = test system: Platelet-Activating Factor Biosynthesis in Human Polymorphonuclear Neutrophils; test: Inhibition of platelet-activating factor (PAF) biosynthesis in human polymorphonuclear neutrophils (in vitro phospholipase A2 assay); assay type: cell-based; details: Polymorphonuclear neutrophil, A23187 stimulated human PMN
Method: (§1) The compounds of the invention are tested in an in vitro phospholipase A2 assay to determine the ability of the compounds to inhibit the biosynthesis of platelet-activating factor and LTB4 in purified human neutrophils.
(§2) A leukocyte enriched blood sample obtained from a healthy donor is procured by leukophoresis using a Haemonetics model 30+ blood processor (Biological Specialties, Inc., Lansdale, Pa.). The top "platelet-rich" layer is removed after a low speed spin (35 xg, 15 min, 25° C.) of the sample. The remaining cell suspension is centrifuged (400 xg, 10 min, 25° C.) to sediment the remaining cells. The supernatant is discarded and the cell pellet resuspended in 120 ml HBSS (without Ca^++ /Mg^++). The cell suspension is subjected to ficoll-hypaque sedimentation (Histopaque 1077, 400 xg, 30 min, 25° C). Contaminating erythrocytes are lysed by hypotonic shock (1 min). The cells are then washed once with 40 ml of HBSS and resuspended with HBSS (without Ca^++ /Mg^++) to a concentration of 2.5×10^7 cells/ml for further use. Greater than 95% purity is obtained, as assessed by microscopic examination.
(§3) One ml of human PMN (2.5×10^7 cells/ml) is incubated with vehicle or drugs (10 μl) for 10 minutes at 30° C. After preincubation, an equal volume of HBSS (1 ml) containing 2.4 mM CaCl2, 6 μM calcium ionophore A23187 and 50 μCi[^3 H]-acetate is then incubated at 30° C. for 15 minutes. An aliquot (100 μl) of the reaction mixture is taken out and mixed with 900 μl of 15% ethanol. LTB4 is extracted by using solid phase extraction on reverse phase C18 columns to remove excess [^3 H]-acetate and PAD. […] The quantity of LTB4 in the sample is obtained from RIA determination. […] [^3 H]-PAF is resolved from other phospholipids by TLC on RPC18 plates with a solvent system of chloroform:methanol:water (2:3:1, v/v/v) and is quantitated using a Berthold automated TLC linear analyzer.
(§4) Data presented are the mean +/- s.d. of the values relative to control A23187 stimulated cells for each experiment assayed in triplicate. Percent inhibition when used is calculated as: […]

[2] = test system: LTB4 biosynthesis in human neutrophils; test: Inhibition of LTB4 biosynthesis in purified human neutrophils (in vitro phospholipase A2 assay); assay type: cell-based; details: Neutrophil, A23187 stimulated human PMN
Method: as §1, §2, §3, §4

[3] = target: T1, Human Platelet PLA2 (Homo sapiens, UniProt P14555); test: In vitro isolated phospholipase A2 assay, arachidonic acid release from 3H-AA E. coli substrate, human platelet PLA2; assay type: biochemical; details: read-out: % Inhibition at 10 μM HP (human platelet)
T1 construct: Semipurified human platelet acid extract PLA2; from tissue; host or cells: human platelets (semipurified acid extract)
T1 sequence (P14555 21-144): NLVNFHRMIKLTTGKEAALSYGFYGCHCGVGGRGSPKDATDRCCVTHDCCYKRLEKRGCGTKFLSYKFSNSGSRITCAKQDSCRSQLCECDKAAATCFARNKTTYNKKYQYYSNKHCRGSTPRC
Method: (§5) The compounds of the invention are tested in an in vitro isolated phospholipase A2 assay to determine the ability of the test compounds to inhibit the release of arachidonic acid from an arachidonic acid-containing substrate by the action of phospholipase A2 enzyme from human and non-human sources.
(§6) Into a 15 mL polypropylene tube are added the following: […]
(§7) ^3 H-AA E. coli substrate^1
(§8) Tris-HCl (0.5M) pH 7.5^3
(§9) PLA2 25 Volume yielding 12%
(§10) *pre-incubate at room temperature 30 min prior to substrate addition.
(§11) ^1 Prepared by adding 2 mL deionized and distilled water to 2 mL
(§12) ^5 Stock 10 mM prepared in dimethyl sulfoxide. Make 1:2 dilution with
(§13) ^6 Two human PLA2 enzymes are used:
a) Semipurified human platelet acid extract PLA2 (in 10 Mm sodium
(§14) Incubate the 100μL reaction mixture for 10 minutes at 37° C. in a shaking water bath. The reaction is terminated by the addition of 2 mL tetrahydrofuran, followed by vortexing. NH2 columns ([…]--Analytichem International) are conditioned with 0.5 mL tetrahydrofuran followed by 0.5 mL tetrahydrofuran/water (2 mL:0.1 mL, v/v).
(§15) The sample is loaded onto the columns and slowly drawn through them. The hydrolyzed arachidonic acid retained in the columns is eluted therefrom with 1 mL tetrahydrofuran/glacial acetic acid (2%). The arachidonic acid is transferred to scintillation vials and quantitated by β-counting analysis. […]

[4] = target: T2, Human Synovial PLA2 (Homo sapiens, UniProt P14555); test: In vitro isolated phospholipase A2 assay, arachidonic acid release from 3H-AA E. coli substrate, human synovial fluid PLA2; assay type: biochemical; details: read-out: % Inhibition at 10 μM HSF (human synovial fluid)
T2 construct: Purified human synovial fluid; from tissue; host or cells: human synovial fluid (purified)
T2 sequence (P14555 21-144): T1 sequence (P14555 21-144)
Method: as §5, §6, §7, §8, §9, §10, §11, §12, §13
b) Purified human synovial fluid.
as §14, §15

[5] = test system: 5-lipoxygenase; test: Resident murine peritoneal macrophage assay, LTC4 (5-lipoxygenase); assay type: cell-based, murine (female Swiss Webster mice); details: for inhibition at 0.5 µM: Peritoneal macrophage
Method: (§16) The ability of the compounds of the invention to act as inhibitors of the enzymes 5-lipoxygenase and cyclooxygenase is measured in the resident murine peritoneal macrophage assay.
(§17) Resident peritoneal macrophages are collected from female Swiss Webster mice (49 days old, 20-25 gms, Buckshire) by lavaging with 7-8 ml Hanks Balanced Salt Solution (HBSS) without Ca^++ and Mg^++ (GIBCO). The lavage fluid from several mice is pooled and centrifuged at 4° C. for 10 minutes at 400 xg.
(§18) Residual serum and cellular debris are removed from the monolayers by washing 3x with 2 ml HBSS containing Ca^++ and Mg^++. Macrophages are preincubated for 5 minutes with 1 ml serum-free M199 containing 10 μl dimethyl sulfoxide (DMSO) vehicle or test compound prior to cell activation with zymosan ([…]) or arachidonic acid (AA) (2 μM). After 2 hours, the supernatants are removed and either assayed for LTC4 and PGE2 by radioimmunoassay (RIA) directly or stored at -20° C. In all cases, results are expressed as ng metabolite/4×10^6 cells.
(§19) Raw data (dpm) may be stored directly onto an "Autostart" tape using the HP85 in room C-096. The raw data are converted to ng metabolite/4-10^6cells using the standard curve by a "RIANAL" program (HP85) or a "NONLIN" program (HP9816). Results are then expressed as percent inhibition of zymosan induced, leukotriene or prostaglandin synthesis (control) using the equation: [formula]

[6] = test system: cyclooxygenase; test: Resident murine peritoneal macrophage assay, PGE2 (cyclooxygenase); assay type: cell-based, murine (female Swiss Webster mice); details: mouse peritoneal macrophages; for inhibition at 0.5 µM: Peritoneal macrophage
Method: as §16
as §17, with “xg. The cell pellet is resuspended in Medium 199 (GIBCO) with HEPES buffer containing 100 μg/ml gentamicin. Two ml of the cell suspension (4×10^6 cells) are then plated on 35 mm culture dishes (Nunc).” for “xg.”
A macrophage monolayer is established after a 1-1.5 hour incubation of the cells at 37° C. in an atmosphere of 95% O2 and 5% CO2. The monolayers are washed 2x with 2 ml HBDSS, containing Ca^++ and Mg^++ after which 2 ml Medium 199 supplemented with 10% freshly thawed heat-inactivated fetal bovine serum and 100 μg/ml gentamicin is added for an overnight incubation.
as §18, §19

[7] = 0.5 μM, mouse peritoneal macrophages

Compound	inhibition at 10 µM [1]	inhibition at 10 µM [2]	inhibition at 10 µM [3]	inhibition at 10 µM [4]	inhibition at 0.5 µM [5, 7]	inhibition at 0.5 µM [6]	LTC4 % Inhibition [5, 7]	PGE2 % Inhibition ([6]; 0.5 μM)	pIC50 ([5]; reference compounds)
O=C(CCC1CCCCCCCCCCC1)C1=C(O)COC1=O [Example 1, 3-(3-Cyclododecyl-1-oxopropyl)-4-hydroxy-2(5H)-furanone]	84.3%	95.1%	-3.7%	41.9%	29%	46.7%			
CN1CC(O)=C(C(=O)CCC2CCCCCCCCCCC2)C1=O [Example 3, 3-(3-cyclododecyl-1-oxopropyl)-1.5-dihydro-4-hydroxy-1-methyl-1H-pyrrolin-2-one]	64.4%	90.4%			66.2%	75.9%			
O=C(NCCC1CCCCCCCCCCC1)C1=C(O)COC1=O [Example 15, 4-Hydroxy-2-oxo-2,5-dihydro-furan-3-carboxylic acid-2-cyclododecyl-ethylamide]					25.9%	52%			
O=C(COCC1CCCCCCCCCCC1)C1=C(O)CSC1=O [Example 16]							33.0%	77.0%	
O=C(CCC1CCCCCCCCCCC1)C1=C(O)CSC1=O [Example 2, 3-(3-cyclododecyl-1-oxopropyl)-4-hydroxy-2(5H)-thiophenone]	79.2%	69.6%	18.2%	53%	76.1%	97.1%			
CCCCCC#CCC#CCC#CCC#CCCCC(=O)O [ETYA, reference compound]									6.36
